# From patent US20260285850A1, “SUBSTITUTED OXAZOLIDINONES AND IMIDAZOLINONES AS HERBICIDES” (FMC CORPORATION, priority 2023, published 2026)
# Assays:
# Type in all cases: in vivo
# [1] = test system: barnyardgrass (Echinochloa crus-galli); assay: Test A preemergence soil spray, visual injury rating 0-100; settings: 10 days; for Barnyardgrass plant response rating (0 to 100 scale): 1000 g ai/ha
# Description: (§1) Seeds of plant species selected from barnyardgrass (Echinochloa crus-galli), blackgrass (Alopecurus myosuroides), corn (Zea mays), foxtail, giant (giant foxtail, Setaria faberi), green foxtail (Setaria viridis), goosegrass (Eleusine indica), kochia (Bassia scoparia), oat, wild (wild oat, Avena fatua), palmer (palmer amaranth, palmer pigweed, Amaranthus palmeri), ragweed (common ragweed, Ambrosia artemisiifolia), ryegrass, Italian (italian ryegrass, Lolium multiflorum), soybean (Glycine max) and wheat (Triticum aestivum) were planted into a blend of loam soil and sand and treated preemergence with a directed soil spray using test chemicals formulated in a non-phytotoxic solvent mixture which included a surfactant.
# (§2) At the same time, plants selected from these crops and weed species and also galium (catchweed bedstraw, Galium aparine) and horseweed (Erigeron canadensis) were planted in pots containing the same blend of loam soil and sand and treated with postemergence applications of test chemicals formulated in the same manner. Plants ranged in height from 2 to 10 cm and were in the one- to two-leaf stage for the postemergence treatment. Treated plants and untreated controls were maintained in a greenhouse for 10 days, after which time all treated plants were compared to untreated controls and visually evaluated for injury. Plant response ratings, summarized in Table A, are based on a 0 to 100 scale where 0 is no effect and 100 is complete control. A dash (-) response means no test result.
# [2] = test system: blackgrass (Alopecurus myosuroides); assay: as above; settings: 10 days
# Description: as §1, §2
# corn (Zea mays) [3] = assay: as above; settings: 10 days
# Description: as §1, §2
# [4] = test system: green foxtail (Setaria viridis); assay: as above; settings: 10 days; for Foxtail, Green plant response rating (0 to 100 scale): 1000 g ai/ha
# Description: as §1, §2
# kochia (Bassia scoparia) [5] = assay: as above; settings: 10 days; for Kochia plant response rating (0 to 100 scale): 1000 g ai/ha
# Description: as §1, §2
# [6] = test system: oat, wild (wild oat, Avena fatua); assay: as above; settings: 10 days
# Description: as §1, §2
# [7] = test system: palmer (palmer amaranth, palmer pigweed, Amaranthus palmeri); assay: as above; settings: 10 days; for Amaranth, Palmer / Pigweed, Palmer plant response rating (0 to 100 scale): 1000 g ai/ha, 0 = no effect, 100 = complete control
# Description: as §1, §2
# [8] = test system: ragweed (common ragweed, Ambrosia artemisiifolia); assay: as above; settings: 10 days
# Description: as §1, §2
# [9] = test system: ryegrass, Italian (italian ryegrass, Lolium multiflorum); assay: as above; settings: 10 days; for Ryegrass, Italian plant response rating (0 to 100 scale): 1000 g ai/ha
# Description: as §1, §2
# soybean (Glycine max) [10] = assay: as above; settings: 10 days
# Description: as §1, §2
# [11] = test system: wheat (Triticum aestivum); assay: as above; settings: 10 days
# Description: as §1, §2
# [12] = test system: barnyardgrass (Echinochloa crus-galli); assay: Test A postemergence application, visual injury rating 0-100; settings: for Barnyardgrass plant response rating: 1000 g ai/ha, 0 to 100 scale
# Description: as §1, §2
# [13] = test system: blackgrass (Alopecurus myosuroides); assay: as above; settings: for Blackgrass plant response rating: 1000 g ai/ha, 0 to 100 scale
# Description: as §1, §2
# corn (Zea mays) [14] = assay: as above
# Description: as §1, §2
# [15] = test system: green foxtail (Setaria viridis); assay: as above; settings: for Foxtail, Green plant response rating: 1000 g ai/ha, 0 to 100 scale
# Description: as §1, §2
# kochia (Bassia scoparia) [16] = assay: as above; settings: for Kochia plant response rating: 1000 g ai/ha, 0 to 100 scale
# Description: as §1, §2
# [17] = test system: oat, wild (wild oat, Avena fatua); assay: as above
# Description: as §1, §2
# [18] = test system: palmer (palmer amaranth, palmer pigweed, Amaranthus palmeri); assay: as above
# Description: as §1, §2
# [19] = test system: ragweed (common ragweed, Ambrosia artemisiifolia); assay: as above
# Description: as §1, §2
# [20] = test system: ryegrass, Italian (italian ryegrass, Lolium multiflorum); assay: as above
# Description: as §1, §2
# soybean (Glycine max) [21] = assay: as above
# Description: as §1, §2
# [22] = test system: wheat (Triticum aestivum); assay: as above
# Description: as §1, §2
# [23] = test system: barnyardgrass (Echinochloa crusgalli); assay: Test B flooded paddy test, visual plant response rating 0-100; settings: 250 g ai/ha, Flood, applied to paddy water, evaluated after 13 days
# Description: (§3) Plant species in the flooded paddy test selected from barnyardgrass (Echinochloa crusgalli), ducksalad (Heteranthera limosa), rice (Oryza sativa), and sedge, umbrella (small-flower umbrella sedge, Cyperus difformis) were grown to the 2-leaf stage for testing. At time of treatment, test pots were flooded to 3 cm above the soil surface, treated by application of test compounds directly to the paddy water, and then maintained at that water depth for the duration of the test. Treated plants and controls were maintained in a greenhouse for 13 days, after which time all species were compared to controls and visually evaluated. […] A dash (-) response means no test result.
# [24] = test system: ducksalad (Heteranthera limosa); assay: as above; settings: 250 g ai/ha, Flood, applied to paddy water, evaluated after 13 days
# Description: as §3
# rice (Oryza sativa) = assay: as above; settings: 250 g ai/ha, Flood, applied to paddy water, evaluated after 13 days
# Description: as §3
# [25] = test system: sedge, umbrella (small-flower umbrella sedge, Cyperus difformis); assay: as above; settings: 250 g ai/ha, Flood, applied to paddy water, evaluated after 13 days
# Description: as §3
# [26] = test system: galium (catchweed bedstraw, Galium aparine); assay: Test A postemergence application, visual injury rating 0-100; settings: Postemergence, 1000 g ai/ha, 0 to 100 scale, 10 days
# Description: as §1, §2
# [27] = test system: horseweed (Erigeron canadensis); assay: as above; settings: Postemergence, 1000 g ai/ha, 0 to 100 scale, 10 days
# Description: as §1, §2
# [28] = 62 g ai/ha, 0 = no effect, 100 = complete control
# [29] = 62 g ai/ha, postemergence, 10 days, 0 = no effect, 100 = complete control
# [30] = Postemergence, 16 g ai/ha, greenhouse 10 days, 0 no effect, 100 complete control
# [31] = 0 = no effect, 100 = complete control
compound,measurement,setting,value
CCOC(=O)C1=CCC(NC(=O)C2(C)CN(c3cc(F)cc(F)c3)C(=O)O2)C1 (centres unmarked) [Compound 111],Barnyardgrass plant response rating,"[1]; 16 g ai/ha, 0 to 100 scale",0
same,Barnyardgrass plant response rating (0-100),[1]; [28],0
same,Blackgrass plant response rating,"[2]; 16 g ai/ha, 0 to 100 scale",0
same,Blackgrass plant response rating (0-100),[2]; [28],0
same,Corn plant response rating,"corn (Zea mays) [3]; 16 g ai/ha, 0 to 100 scale",0
same,Corn plant response rating (0-100),corn (Zea mays) [3]; [28],0
same,"Foxtail, Green plant response rating","[4]; 16 g ai/ha, 0 to 100 scale",0
same,"Foxtail, Green plant response rating (0-100)",[4]; [28],0
same,Kochia plant response rating,"kochia (Bassia scoparia) [5]; 16 g ai/ha, 0 to 100 scale",0
same,Kochia plant response rating (0-100),kochia (Bassia scoparia) [5]; [28],0
same,"Oat, Wild plant response rating","[6]; 16 g ai/ha, 0 to 100 scale",0
same,"Oat, Wild plant response rating (0-100)",[6]; [28],0
same,"Pigweed, Palmer plant response rating","[7]; 16 g ai/ha, 0 to 100 scale",0
same,Ragweed plant response rating,"[8]; 16 g ai/ha, 0 to 100 scale",0
same,Ragweed plant response rating (0-100),[8]; [28],0
same,"Ryegrass, Italian plant response rating","[9]; 16 g ai/ha, 0 to 100 scale",0
same,"Ryegrass, Italian plant response rating (0-100)",[9]; [28],0
same,Soybean plant response rating,"soybean (Glycine max) [10]; 16 g ai/ha, 0 to 100 scale",100
same,Soybean plant response rating (0-100),soybean (Glycine max) [10]; [28],0
same,Wheat plant response rating,"[11]; 16 g ai/ha, 0 to 100 scale",0
same,Wheat plant response rating (0-100),[11]; [28],0
same,Barnyardgrass plant response rating (0-100),[12]; [29],20
same,Barnyardgrass plant response rating (0 to 100 scale),[12]; [30],0
same,Blackgrass plant response rating (0-100),[13]; [29],0
same,Blackgrass plant response rating (0 to 100 scale),[13]; [30],0
same,Corn plant response rating (0-100),corn (Zea mays) [14]; [29],0
same,Corn plant response rating (0 to 100 scale),corn (Zea mays) [14]; [30],0
same,"Foxtail, Green plant response rating (0-100)",[15]; [29],0
same,"Foxtail, Green plant response rating (0 to 100 scale)",[15]; [30],0
same,Kochia plant response rating (0-100),kochia (Bassia scoparia) [16]; [29],0
same,Kochia plant response rating (0 to 100 scale),kochia (Bassia scoparia) [16]; [30],0
same,"Oat, Wild plant response rating (0-100)",[17]; [29],0
same,"Oat, Wild plant response rating (0 to 100 scale)",[17]; [30],0
same,"Pigweed, Palmer plant response rating (0-100)",[18]; [29],10
same,"Pigweed, Palmer plant response rating (0 to 100 scale)",[18]; [30],0
same,Ragweed plant response rating (0-100),[19]; [29],0
same,Ragweed plant response rating (0 to 100 scale),[19]; [30],0
same,"Ryegrass, Italian plant response rating (0-100)",[20]; [29],0
same,"Ryegrass, Italian plant response rating (0 to 100 scale)",[20]; [30],0
same,Soybean plant response rating (0-100),soybean (Glycine max) [21]; [29],0
same,Soybean plant response rating (0 to 100 scale),soybean (Glycine max) [21]; [30],0
same,Wheat plant response rating (0-100),[22]; [29],20
same,Wheat plant response rating (0 to 100 scale),[22]; [30],0
same,"Plant response rating, Barnyardgrass (0 to 100 scale, 0 is no effect and 100 is complete control)",[23],0
same,"Plant response rating, Ducksalad (0 to 100 scale, 0 is no effect and 100 is complete control)",[24],0
same,"Plant response rating, Rice (0 to 100 scale, 0 is no effect and 100 is complete control)",rice (Oryza sativa),0
same,"Plant response rating, Sedge, Umbrella (0 to 100 scale, 0 is no effect and 100 is complete control)",[25],0
CC1(C(=O)NC2C=CC(C(=O)O)C2)CN(c2cc(F)cc(F)c2)C(=O)N1 (centres unmarked) [Compound 179],Barnyardgrass plant response rating (0 to 100 scale),[1]; [31],100
same,"Foxtail, Green plant response rating (0 to 100 scale)",[4]; [31],100
same,Kochia plant response rating (0 to 100 scale),kochia (Bassia scoparia) [5]; [31],100
same,"Amaranth, Palmer / Pigweed, Palmer plant response rating (0 to 100 scale)",[7],60
same,"Ryegrass, Italian plant response rating (0 to 100 scale)",[9]; [31],100
same,Barnyardgrass plant response rating,"[12]; Postemergence, 10 days",100
same,Blackgrass plant response rating,"[13]; Postemergence, 10 days",100
same,Galium plant response rating,[26],90
same,"Foxtail, Green plant response rating","[15]; Postemergence, 10 days",90
same,Horseweed plant response rating,[27],80
same,Kochia plant response rating,"kochia (Bassia scoparia) [16]; Postemergence, 10 days",90
COC(=O)C1C=CC(NC(=O)C2(C)CN(c3cc(F)cc(F)c3)C(=O)N2)C1 (centres unmarked) [Compound 180],Barnyardgrass plant response rating (0 to 100 scale),[1]; [31],100
same,"Foxtail, Green plant response rating (0 to 100 scale)",[4]; [31],100
same,Kochia plant response rating (0 to 100 scale),kochia (Bassia scoparia) [5]; [31],100
same,"Amaranth, Palmer / Pigweed, Palmer plant response rating (0 to 100 scale)",[7],100
same,"Ryegrass, Italian plant response rating (0 to 100 scale)",[9]; [31],100
same,Barnyardgrass plant response rating,"[12]; Postemergence, 10 days",100
same,Blackgrass plant response rating,"[13]; Postemergence, 10 days",90
same,Galium plant response rating,[26],90
same,"Foxtail, Green plant response rating","[15]; Postemergence, 10 days",90
same,Horseweed plant response rating,[27],90
same,Kochia plant response rating,"kochia (Bassia scoparia) [16]; Postemergence, 10 days",80
COC(=O)C1CC(NC(=O)C2(C(F)(F)F)CN(c3cc(F)cc(F)c3)C(=O)O2)C1 (centres unmarked) [Compound 196],"Plant response rating, Barnyardgrass (0 to 100 scale, 0 is no effect and 100 is complete control)",[23],95
same,"Plant response rating, Ducksalad (0 to 100 scale, 0 is no effect and 100 is complete control)",[24],50
same,"Plant response rating, Rice (0 to 100 scale, 0 is no effect and 100 is complete control)",rice (Oryza sativa),85
same,"Plant response rating, Sedge, Umbrella (0 to 100 scale, 0 is no effect and 100 is complete control)",[25],95
CC1(C(=O)NC2CC=C(C(=O)OCC3CC3)C2)CN(c2cc(Cl)cc(Cl)c2)C(=O)O1 (centres unmarked) [Compound 198],"Plant response rating, Barnyardgrass (0 to 100 scale, 0 is no effect and 100 is complete control)",[23],90
same,"Plant response rating, Ducksalad (0 to 100 scale, 0 is no effect and 100 is complete control)",[24],60
same,"Plant response rating, Rice (0 to 100 scale, 0 is no effect and 100 is complete control)",rice (Oryza sativa),85
same,"Plant response rating, Sedge, Umbrella (0 to 100 scale, 0 is no effect and 100 is complete control)",[25],75
